Reference: ChEMBL document CHEMBL3045684, “Compatibility of traditional and novel acaricides with bumblebees (Bombus terrestris): a first laboratory assessment of toxicity and sublethal effects” (Pest Manag Sci, 2010)
The source made the active and inactive calls. The calls are words filed in the database; no cut-off is given here.

Key:
Bombus terrestris [1] = experiment: Contact toxicity against worker Bombus terrestris (bumblebee) assessed as mortality at 240 mg a.i./l applied on the dorsal thorax for 11 weeks measured everyday for 3 days followed by once a week for 11 weeks; format: functional
Bombus terrestris [2] = experiment: Toxicity against worker Bombus terrestris (bumblebee) assessed as reduction in reproduction at 240 mg a.i./l, po administered through sugar water for 11 weeks measured once a week for 11 weeks relative to control; format: functional, organism-based
Bombus terrestris [3] = experiment: Contact toxicity against worker Bombus terrestris (bumblebee) assessed as reduction in reproduction at 240 mg a.i./l applied on the dorsal thorax for 11 weeks measured once a week for 11 weeks relative to control; format: functional, organism-based
Apis mellifera [4] = experiment: Contact toxicity against Apis mellifera (honey bee) assessed per bee; format: functional
Apis mellifera [5] = experiment: Toxicity against Apis mellifera (honey bee) assessed per bee; format: functional
Bombus terrestris [6] = experiment: Toxicity against worker Bombus terrestris (bumblebee) assessed as mortality at 240 mg a.i./l, po administered through pollen measured after 5 weeks; format: functional; conditions: 840 h
Bombus terrestris [7] = experiment: Toxicity against worker Bombus terrestris (bumblebee) assessed as mortality at 240 mg a.i./l, po administered through sugar water measured up to 1 week; format: functional, organism-based
Bombus terrestris [8] = experiment: Contact toxicity against Bombus terrestris (bumblebee) assessed per bee; format: functional
Bombus terrestris [9] = experiment: Toxicity against worker Bombus terrestris (bumblebee) assessed as mortality at 240 mg a.i./l, po administered through pollen for 11 weeks measured everyday for 3 days followed by once a week for 11 weeks; format: functional
Bombus terrestris [10] = experiment: Toxicity against worker Bombus terrestris (bumblebee) assessed as mortality at 240 mg a.i./l, po administered through sugar water for 11 weeks measured everyday for 3 days followed by once a week for 11 weeks; format: functional
Bombus terrestris [11] = experiment: Toxicity against worker Bombus terrestris (bumblebee) assessed as mortality at 240 mg a.i./l, po administered through pollen measured after 8 weeks; format: functional; conditions: 1344 h
Bombus terrestris [12] = experiment: Toxicity against worker Bombus terrestris (bumblebee) assessed as reduction in reproduction at 240 mg a.i./l, po administered through pollen for 11 weeks measured once a week for 11 weeks; format: functional, organism-based
Bombus terrestris [13] = experiment: Toxicity against worker Bombus terrestris (bumblebee) assessed as mortality at 125 mg a.i./l, po administered through pollen for 11 weeks measured everyday for 3 days followed by once a week for 11 weeks; format: functional, organism-based
Bombus terrestris [14] = experiment: Contact toxicity against worker Bombus terrestris (bumblebee) assessed as reduction in reproduction at 125 mg a.i./l applied on the dorsal thorax for 11 weeks measured once a week for 11 weeks relative to control; format: functional, organism-based
Bombus terrestris [15] = experiment: Toxicity against worker Bombus terrestris (bumblebee) assessed as reduction in reproduction at 125 mg a.i./l, po administered through sugar water for 11 weeks measured once a week for 11 weeks relative to control; format: functional, organism-based
Bombus terrestris [16] = experiment: Toxicity against worker Bombus terrestris (bumblebee) assessed as mortality at 125 mg a.i./l, po administered through sugar water for 11 weeks measured everyday for 3 days followed by once a week for 11 weeks; format: functional
Bombus terrestris [17] = experiment: Contact toxicity against worker Bombus terrestris (bumblebee) assessed as mortality at 125 mg a.i./l applied on the dorsal thorax for 11 weeks measured everyday for 3 days followed by once a week for 11 weeks; format: functional
Bombus terrestris [18] = experiment: Toxicity against worker Bombus terrestris (bumblebee) assessed as reduction in reproduction at 125 mg a.i./l, po administered through pollen for 11 weeks measured once a week for 11 weeks; format: functional, organism-based
Bombus terrestris [19] = experiment: Contact toxicity against worker Bombus terrestris (bumblebee) assessed as reduction in reproduction at 55 mg a.i./l applied on the dorsal thorax for 11 weeks measured once a week for 11 weeks relative to control; format: functional, organism-based
Bombus terrestris [20] = experiment: Toxicity against worker Bombus terrestris (bumblebee) assessed as mortality at 55 mg a.i./l, po administered through pollen for 11 weeks measured everyday for 3 days followed by once a week for 11 weeks; format: functional, organism-based
Bombus terrestris [21] = experiment: Toxicity against worker Bombus terrestris (bumblebee) assessed as mortality at 55 mg a.i./l, po administered through sugar water measured after 9 to 11 weeks; format: functional, organism-based
Bombus terrestris [22] = experiment: Toxicity against worker Bombus terrestris (bumblebee) assessed as reduction in reproduction at 55 mg a.i./l, po administered through pollen for 11 weeks measured once a week for 11 weeks; format: functional; set-up: scale not given: the % may be the effect or the level left
Bombus terrestris [23] = experiment: Contact toxicity against worker Bombus terrestris (bumblebee) assessed as mortality at 55 mg a.i./l applied on the dorsal thorax for 11 weeks measured everyday for 3 days followed by once a week for 11 weeks; format: functional
Bombus terrestris [24] = experiment: Toxicity against worker Bombus terrestris (bumblebee) assessed as reduction in reproduction at 55 mg a.i./l, po administered through sugar water for 11 weeks measured once a week for 11 weeks relative to control; format: functional, organism-based
Bombus terrestris [25] = experiment: Toxicity against po dosed worker Bombus terrestris (bumblebee) administered through sugar water for 11 weeks measured everyday for 3 days followed by once a week for 11 weeks; format: functional
Bombus terrestris [26] = experiment: Toxicity against worker Bombus terrestris (bumblebee) assessed as mortality at 55 mg a.i./l, po administered through sugar water for 11 weeks measured everyday for 3 days followed by once a week for 11 weeks; format: functional

`CCOCn1c(-c2ccc(Cl)cc2)c(C#N)c(Br)c1C(F)(F)F` [CHLORFENAPYR] was tested, and the mortality at 240 µg/mL (Bombus terrestris [1]) was under 25%, the Activity (Bombus terrestris [2]) was “Active” and the Activity (Bombus terrestris [3]) was “inactive”. The LD50 (Apis mellifera [4]) was under 1 µg, the LD50 (Apis mellifera [5]) was 0.2 µg and the mortality at 240 µg/mL (Bombus terrestris [6]) was 50%. For the same molecule, the Activity (Bombus terrestris [7]) was “Active”, the LD50 (Bombus terrestris [8]) was over 100 µg and the mortality at 240 µg/mL (Bombus terrestris [9]) was 90%. The mortality at 240 µg/mL (Bombus terrestris [10]) was 95%, the mortality at 240 µg/mL (Bombus terrestris [11]) was 90% and the Activity (Bombus terrestris [12]) was “Active”.

For `O=C(NC(=O)c1c(F)cccc1F)Nc1ccc(CO/N=C(/c2ccc(Cl)cc2)C2CC2)cc1` [FLUCYCLOXURON], the Activity (Bombus terrestris [13]) was “inactive”, the Activity (Bombus terrestris [14]) was “Active” and the Activity (Bombus terrestris [15]) was “inactive”. For the same molecule, the mortality at 125 µg/mL (Bombus terrestris [16]) was 25%, the mortality at 125 µg/mL (Bombus terrestris [17]) was under 25% and the Activity (Bombus terrestris [18]) was “Active”.

In the case of `CCOc1cc(C(C)(C)C)ccc1C1COC(c2c(F)cccc2F)=N1` (configuration not stated) [ETOXAZOLE], the Activity (Bombus terrestris [19]) is reported as “Active”, the Activity (Bombus terrestris [20]) is reported as “inactive” and the Activity (Bombus terrestris [21]) is reported as “Active”. The Activity (Bombus terrestris [22]) was 25%, the mortality at 55 µg/mL (Bombus terrestris [23]) was under 25% and the Activity (Bombus terrestris [24]) was “Active”. The LC50 (Bombus terrestris [25]) was 4.4 mgAi/L, the NOAEL (Bombus terrestris [25]) was 0.55 mgAi/L and the mortality at 55 µg/mL (Bombus terrestris [26]) was 95%.
